Bridge positions count the residues as written; N and C are the ends. Square brackets hold non-standard residues; d marks the D form. Peptide text beside a SMILES is read from it. * marks the point of attachment. X1 = CC[C@H](C)CCCCC(=O)*; Dab = NCC[C@H](N)C(=O)O Some results are limits rather than exact numbers.

The source of these data is publication PMC11148078, “Potent activity of polymyxin B is associated with long-lived super-stoichiometric accumulation mediated by weak-affinity binding to lipid A” (Nature Communications, 2024).

The test has as its system wt-OMVs. The experiment in a line: Three-state model fit to SPR titration, wt-OMVs. It counts as binding, E. coli. An excerpt: To estimate binding constants, the three-state model was fit to binding curve titrations (Fig. 5A, B, and Table 2). Briefly, the SPR response curves of polymyxin B binding wt-OMVs (Fig. 5A) or resistant OMVs (Fig. 5B) were globally fit to Eqn. (1) by non-linear regression coupled to numerical integration of the associated ordinary differential equations (see Supplementary Information Section 2A), which define the time-dependent concentrations of each species.1 Response(t)=([PMBL]t+[nPMBL]t+2*[tPMB]t+m.[cPMB]t).MW.G.
Section 2A - Formulation of three-state model for fitting SPR data
The three-state model (Fig. 4) was formulated as a set of coupled ordinary differential equations (ODEs), with eight binding rate constants (k1-8) governing the rates of interchange of each species.
Forward rate constants k7 and k9 were eliminated from the equation set as formation of transient species tPMB and LL are irreversible.
Time at Injection 1 start = 0 s
Sample contact time = 30 s
Dissociation time interval = 35 s
Mass transport rate = kt = 46.5 1/s
Initial Species Concentrations
Coupled ODEs of Three-State Model d[L]/dt = -(k1.[PMB].[L] - k2.[PMBL])+2*k10.[LL] (S8) d[PMB]/dt = -(k1.[PMB].[L] - k2.[PMBL]) + kt’.([PMBi](t) –[PMB]) (S9) d[PMBL]/dt = (k1.[PMB]*[L] - k2.[PMBL])-(k3.[PMBL].[n] - k4.[nPMBL] ) (S10) d[n]/dt = -(k3.[PMBL].[n] - k4.[nPMBL] ) (S11) d[nPMBL]/dt = (k3.[PMBL].[n] - k4.[nPMBL])-2.(k5.[nPMBL].[nPMBL] - k6.[tPMB].[LL] ) (S12) d[tPMB]/dt = (k5.[nPMBL].[nPMBL] - k6.[tPMB].[LL] ) – k8.[tPMB] (S13) d[cPMB]/dt = 2*k8.[tPMB] (S14) d[LL]/dt = (k5.[nPMBL].[nPMBL] – k6.[tPMB].[LL]) – k10.[LL] (S15)
The initial concentrations of each species were as follows
[PMB]t=0 = [PMBL]t=0 = [nPMBL]t=0 = [tPMB]t=0 = [LL]t=0 = [cPMB]t=0 = 0 [L]t=0 = [n]t=0 = 1.56 x 10-4 (units, M) kt’ (units, m/s) was already defined in SI Section 1A. [PMBi](t) is the injected concentration profile and [PMB]t is the concentration profile at the sensing surface. [PMBi](t) follows a serial-doubling concentration of injected analyte, with a concentration profile defined by a serial step function, where each injection step represents a discrete concentration followed by a dissociation step without injected analyte and this is repeated for each concentration in the SCK dosing series.
Kintek Explorer V9.5 was used to build and fit the three-state model. This program employs its own numerical integrator9, which reports the change in concentration of each species over time.
The SPR responses for concentrations of each accumulating PMB-species estimated from Eqn (8 - 15) are summed over time in Eqn (1), repeated here.
Response(t) = ([PMBL]t+[nPMBL]t+2*[tPMB]t+m.[cPMB]t).MW.G. Eqn (1)
The concentration of [tPMB]t is multiplied by two to account for its additional mass, being composed of two PMB molecules. Insertion of PMB into the acyl-LPS matrix to form cPMB is associated with changes in the phase state of LPS10 and is also likely associated with redistribution of mass towards the sensing surface11. These changes will manifest as an increase in sensitivity of the SPR binding response when clusters are formed and are included in Eqn (1) […]
using a sensitivity coefficient (m). MW is the molecular weight of the injected analyte, in this case PMB (1203.48 Da). The constant, G, is a unit conversion factor that converts protein concentration (g/L) to response (RU) and is typically 100 (units, RU.L/g). […]

Regarding `CC[C@H](C)CCCCC(=O)N[C@@H](CCN)C(=O)N[C@H](C(=O)N[C@@H](CCN)C(=O)N[C@H]1CCNC(=O)[C@H]([C@@H](C)O)NC(=O)[C@H](CCN)NC(=O)[C@H](CCN)NC(=O)[C@H](CC(C)C)NC(=O)[C@@H](Cc2ccccc2)NC(=O)[C@H](CCN)NC1=O)[C@@H](C)O` [Polymyxin B] (X1-[Dab]T[Dab][Dab][Dab][dF]L[Dab][Dab]T; lactam 4-C (inferred); N-terminus assumed), the k5 (dimerization of nPMBL, global fit, max 625 nM) was determined as 20.75 M⁻¹ s⁻¹. Also, where the note is “membrane insertion / nPMBL formation, global fit, max 625 nM”, the k3 is 2233 M⁻¹ s⁻¹. This compound also came in with a k4 (nPMBL dissociation, global fit, max 625 nM) of 0.00488 s⁻¹. The “relative fraction of transition state” value (peer review file) is listed as less than 0.1%. Besides, the “residence time = 1/k4” value (stability of nucleates (nPMBL)) was found to be 205 s.
